Laboratory results from patent US8460867B2, “Methods of treating psychosis and schizophrenia based on polymorphisms in the CNTF gene” (Novartis AG, priority 2001, dated 2013).

B1: CNTF: Ciliary Neurotrophic Factor, survival factor for neuronal cell types, member of the interleukin-6 cytokine family (protein, UniProt P26441 1-200, looked up)
Ciliary neurotrophic factor: MAFTEHSPLTPHRRDLCSRSIWLARKIRSDLTALTESYVKHQGLNKNINLDSADGMPVASTDQWSELTEAERLQENLQAYRTFHVLLARLLEDQQVHFTPTEGDFHQAIHTLLLQVAAFAYQIEELMILLEYKIPRNEADGMPINVGDGGLFEKKLWGLKVLQELSQWTVRSIHDLRFISSHQTGIPARGSHYIANNKKM

Tests used:
schizophrenic patients = experiment: Clinical trial of Iloperidone in schizophrenic patients, pharmacogenetic analysis by CNTF 103 G>A genotype; assay type: in vivo, human
Text: In an effort to identify genetic factors that may associate with treatment response to Iloperidone, the relationship between a polymorphism in the CNTF (ciliary neurotrophic factor) gene (located on 11q12.2, the polymorphism being 103 G>A in GenBank sequence X55890 (Version 1), see PubMed: 9285965) and the clinical response to the antipsychotic Iloperidone in a clinical trial was investigated. This trial was a randomized, double-blind, placebo- and risperidone-controlled, multicenter study to evaluate the efficacy and safety of two non-overlapping dose ranges of lloperidone (12 or 16 mg/d and 20 or 24 mg/d and risperidone (6 or 8 mg/d) compared with placebo, given twice-daily (b.i.d) for 42 days to schizophrenic patients followed by a long-term treatment phase with lloperidone given once daily (q.d) at doses of 4, 8, 12, 16, or 24 mg/d for 46 weeks to patients with schizophrenia.
Pharmacogenetic analysis for candidate gene polymorphisms was conducted in Phase II of the clinical trial. It was determined whether the CNTF (ciliary neurotrophic factor) 103 G>A polymorphism (GenBank sequence X55890 (Version 1)) 103 G>A, (expressed protein alteration FS63 TER) was associated with any of the clinical parameters of efficacy studied in the course of the clinical trial and specifically changes in the BPRSA, Total PANNS, Positive PANNS, Negative PANNS and General PANNS scales.
A total of 207 unique blood samples were collected from the patients at the trial sites. The DNA was extracted by Covance (Geneva) using the PUREGENE™ DNA Isolation Kit (D-50K). The CNTF 103 G>A polymorphism (GenBank sequence X55890 (Version 1)) polymorphism was described by Takahashi, see, Takahashi et al. Nature Genet. 7: 79-84, 1994.
The probe sets for genotyping were designed and synthesized by Third Wave Technologies, Inc (Madison, Wis.). […]

ob/ob mice = conditions: systemic administration; cited from earlier work
[1] = system: mice with diet-induced obesity; conditions: partially resistant to leptin; cited from earlier work
pmn/pmn mice = conditions: also when degenerative alterations were already present; cited from earlier work
db/db mice = conditions: which lack a functional leptin receptor; cited from earlier work

Molecule | association of Total PANSS and BPRSA with the CNTF 103 G>A polymorphism (schizophrenic patients; 12-16 mg dose (Group A), analysis of variance within treatments, p<0.001) | response of the GG type versus the placebo (schizophrenic patients; 12-16 mg treatment group, GG type of the CNTF gene, p<0.001) | treatment response (BPRSA and Total PANNS scales), GG type versus non-GG type of the CNTF gene (schizophrenic patients; 12-16 mg treatment group, schizophrenic patients, 42 days b.i.d.) | induction of the tis-11 primary response gene in the arcuate nucleus (ob/ob mice) | obesity-related phenotypes [1] | motor function and morphologic symptoms of neural degeneration (pmn/pmn mice) | obesity-related phenotypes (db/db mice)
COc1cc(C(C)=O)ccc1OCCCN1CCC(c2noc3cc(F)ccc23)CC1 [Iloperidone] | significantly associated | highly significant | responded significantly better than the non-GG type | – | – | – | –
LEP: leptin (LEP) cytokine | – | – | – | rapid induction | – | – | –
B1 | – | – | – | rapid induction | reduced obesity-related phenotypes | successfully improved motor function and reduced the morphologic symptoms of neural degeneration | reduced obesity-related phenotypes
